Experimental data as given in US20070244102A1, “Combination of Dermaciclane and Opoids as Analgesics” (priority 2004, published 2007).
“Also recorded” adds a separate entry of the source. Structures can show the parent of a compound that is named as a salt.

Tests used:
mice = test: hot plate test in mice (influence on morphine analgesia); format: in vivo; conditions: for influence on the analgesic effect of morphine (in words): 30 mg/kg ip. with morphine HCl 1 mg/kg sc.; for analgesia when given alone (in words): alone: morphine HCl 1 mg/kg sc., deramciclane 30 mg/kg ip., buspiron HCl 30 mg/kg ip.
Protocol: A modified of method of Eddy et al. (Eddy, N. B., Leimback, D., Synthetic Analgesics II. Dithienylbutenyl and Dithienylbutylamines. J. Pharmacol. Exp. Ther. 107: p. 385-393, 1953) was used. Male NMRI nice (20-25 g bodyweight) were dropped on a hot plate (56±0.5° C.) and the latency time elapsed until licking the forepaws was measured. The reaction time was tested twice before treatment. […] Mice were treated either with saline or with morphine HCl 1 mg/kg subcutaneously and at the same time either with vehicle or with deramciclane or buspirone, HCl 30 mg/kg intraperitoneally, respectively. After the treatment (15, 30, 45 and 60 min.) the reaction time was measured again. Animals were regarded as positive if they produced a 2.5-fold reaction time increase at least twice compared to their first control values. Statistical analysis was performed using the chi-square method.

[1] = 1 and 10 mg/kg after oral administration; cited from earlier work
[2] = single 0.7 mg/kg oral treatment; cited from earlier work
[3] = single oral dose of 3 mg/kg; cited from earlier work
[4] = 10 and 30 mg/kg after oral treatment; cited from earlier work
[5] = in the above mentioned doses (0.7-30 mg/kg); cited from earlier work
[6] = Saline sc. + Buspiron HCl 30 mg/kg ip.
[7] = Morphine HCl 1 mg/kg sc. + 0.4% methyl cellulose ip.
[8] = Morphine HCl 1 mg/kg sc. + Saline ip.

Compound: O=C1CC2(CCCC2)CC(=O)N1CCCCN1CCN(c2ncccn2)CC1 [Buspiron HCl, buspirone, HCl]
- influence on the analgesic effect of morphine (in words) (mice): did not influence the analgesic effect of morphine
- Effect % (mice; [6]): 0%
- Positive/treated animals (mice; [6]): 0/10
- analgesia when given alone (in words) (mice; listed as buspiron HCl, HCl): Neither morphine HCl 1 mg/kg sc. nor deramciclane 30 mg/kg ip. nor buspiron HCl 30 mg/kg ip. alone produced analgesia
- analgesia when given alone (in words) (mice; listed as buspiron, HCl): neither deramciclane nor buspiron possess analgesic effect in itself

Compound: CN1CC[C@]23c4c5ccc(O)c4O[C@H]2[C@@H](O)C=C[C@H]3[C@H]1C5.Cl [Morphine HCl, morphine HCl]
- Effect % (mice; [7]): 0%
- Positive/treated animals (mice; [7]): 0/10
- Effect % (mice; [8]): 0%
- Positive/treated animals (mice; [8]): 0/10
- analgesia when given alone (in words) (mice): Neither morphine HCl 1 mg/kg sc. nor deramciclane 30 mg/kg ip. nor buspiron HCl 30 mg/kg ip. alone produced analgesia

Compound: (1R,2S,4R)-(−)-2-[N,N-(dimethylaminoethoxy)]-2-phenyl-1,7,7-trimethylbicyclo[2.2.1]heptane [Deramciclane]
- influence on the analgesic effect of morphine (in words) (mice): potentiation of the analgesic effect of morphine
- Effect % (mice; Saline sc. + Deramciclane 30 mg/kg ip.): 0%
- Positive/treated animals (mice; Saline sc. + Deramciclane 30 mg/kg ip., positive = 2.5-fold reaction time increase at least twice, 15-60 min): 0/10
- analgesia when given alone (in words) (mice): Neither morphine HCl 1 mg/kg sc. nor deramciclane 30 mg/kg ip. nor buspiron HCl 30 mg/kg ip. alone produced analgesia; also recorded: neither deramciclane nor buspiron possess analgesic effect in itself
- activity in Vogel punished drinking test [1]: active
- time spent with social interactions [2]: increased the time spent with social interactions
- activity in light-dark model [3]: active
- activity in marble burying model [4]: active
- analgesic activity [5]: did not possess analgesic activity
